In patent EP1214940B1, “Methods of enhancing the therapeutic activity of NSAIDs and compositions of zwitterionic phospholipids useful therein” (Board of Regents, The University of Texas System, priority 1995, dated 1996):
Where two headings read alike, the source gives them in different places. Marks after values point to notes of the source that are not given here.

Key:
[1] = test system: Platelet Aggregation; assay: Ristocetin platelet aggregation test; assay type: cell-based
[2] = test system: rats; assay: Acute gastric lesions in rats after salicylate-based NSAID and 0.6 N HCl challenge; assay type: in vivo, male Sprague Dawley rats; settings: intragastrically administered in association with DPPC versus without; rats challenged with 0.6N HCl; FIG. 4A
Experimental: Ten minutes later, the rats were intragastrically challenged with 1 ml of 0.6 N HCI.
One of a number of NSAIDs was intragastrically administered to rats alone or preassociated with an equimolar concentration of DPPC or Phospholipon 90 G (purified soya lecithin, prepared by Nattermann GmbH of Cologne Germany) in several models of acute and chronic injury of the upper GI tract. Two contrasting animal models were employed to determine the ability of DPPC to protect against acute NSAID injury to the GI tract. For salicylate-based NSAIDs, which primarily induce stomach injury, gastric lesions were scored in fasted rats who were initially treated with aspirin or salicylate alone or complexed with DPPC and challenged 10 minutes later with a supra-physiological dose of HCl. For non-salicylate NSAIDs (indomethacin, diclofenac and naproxen) which predominantly induce injury to the mid-distal regions of the small intestine, the quantity of intraluminal blood was assessed in the distal half of the small intestine of rats who were pre- and post-treated with the Nitric Oxide synthetase inhibitor, L-NAME (N-nitro-L-arginine methyl ester).

[3] = test system: rats; assay: Rat fever model (Brewer's yeast), antipyretic activity by rectal temperature; assay type: in vivo; settings: for enhancement in anti-pyretic activity of the NSAID/DPPC complex compared to the NSAID alone: sodium salts complexed with equimolar DPPC, first three hours after intragastric administration
Experimental: Similar antipyretic analyses were performed with the sodium salts of the following NSAIDs: diclofenac (10 mg/kg), indomethacin (10 mg/kg) and naproxen (30 mg/kg), alone and complexed with an equimolar concentration of DPPC. All test solutions were titrated to a pH of 4.5 prior to intragastric administration. Rectal temperatures were monitored in conscious, restrained rats at all indicated times.
The ability of NSAIDs (administered alone and complexed with DPPC) to reduce fever in rats was determined.

[4] = assay type: physicochemical; settings: NSAID sodium salt 100mM, 25°C, neutral conditions, alone or sonicated with 0.5 mM DPPC or DPPG; the sodium-salicylate line is with DPPC; FIG. 3
Experimental: The diffusion of aspirin (alone and complexed with phospholipid) from water into cyclohexane was used as a model to estimate the membrane permeability of the drug.
The sodium salt of ASA (also salicylate) was dissolved in 5 ml of water at a final concentration of 100mM (pH adjusted to 6.0) and gently stirred at 25°C. An equal volume of cyclohexane was layered over the aqueous solution and the entry of the NSAID into the organic phase was monitored fluorometrically over time. In order to determine the effect of phospholipid association on the lipid permeability of the NSAID, ASA (or salicylate) at the above concentration was sonicated in the presence of 0.5 mM phospholipid (DPPC or DPPG) in water (adjusted to a pH of 7), and its rate of diffusion into the cyclohexane phase was measured fluorometrically. […] This entire process could be completed in < 30 seconds.

[5] = test system: rats; assay type: in vivo; settings: aspirin 90mg/kg daily intragastric over 2 weeks, (n) rats/group
Experimental: Rats were treated with ASA over a two week period to investigate the chronic effects of NSAID exposure (in the presence and absence of phospholipids) on hematocrit, gastric mucosal hydrophobicity, and granuloma formation. […] The test solutions (saline, ASA and ASA/Phospholipon 90G complex) were intragastrically administered between 8AM - 9AM daily during the two week study period. In these chronic exposure experiments, ASA was complexed with an equimolar concentration of Phospholipon 90G (purified soya lecithin, prepared and obtained from Nattermann GmbH of Cologne, Germany) instead of DPPC. At the completion of the study period, blood was collected into a capillary tube for the determination of hematocrit and the stomach was excised for contact angle analysis.
Contact angle analysis was performed with the use of a goniometer on excised gastric mucosal tissue, that was lightly blotted and dried, as previously outlined (Hills et al., 1983; Goddard et al., 1987; Goddard et al., 1990). Briefly, this was accomplished by applying a droplet of water (~ 5µl) to the tissue surface, and employing the telescopic eyepiece of the goniometer to measure the maximal angle that is dissected at the triple point, where the solid/liquid/ and air interface meet.

[6] = test system: Foreign-Body Granuloma Formation; assay: Rat foreign-body granuloma formation (implanted cotton string), two-week daily treatment; assay type: in vivo, rats; settings: two weeks, (dry weight of string with adherent granuloma tissue - dry weight of string)/dry weight of string
Source text: Sterile tared cotton string was surgically implanted (bilaterally) under the abdominal skin of ether anesthetized rats on day 1 of the study period, and then randomly placing rats in a group to be daily treated with saline, aspirin or the NSAID complexed with Phospholipon 90G over a two-week period.
At the completion of the study period the string with the adherent granuloma tissue was surgically dissected from the euthanized rats and dried in a vacuum for several days at room temperature, until a baseline dry weight was obtained. The difference between this value and the initial dry weight of the string prior to implantation divided by the latter value provided an estimate of the weight of granuloma tissue.

[7] = test system: Foreign-Body Granuloma Formation in Rats; assay: Foreign-body granuloma formation in rats, low dose aspirin (9 mg/kg) alone or with phospholipid/neutral lipids; assay type: in vivo; settings: aspirin 9 mg/kg intragastric twice a day, 5 doses, starting five days after implantation; (n); spread in next table row
Source text: Sterile tared string was surgically implanted. Five days later rats were intragastrically administered twice a day with either saline, ASA alone, or ASA lipid mixtures.

CCCCCCCCCCCCCCCC(=O)OCC(COP(=O)([O-])OCC[N+](C)(C)C)OC(=O)CCCCCCCCCCCCCCC (stereo not drawn) [DPPC, dipalmitoyl phosphatidylcholine]
activity at 1000 µM ([1]; High Ristocetin (1.5 mg/ml) Test, ASA 0.00, DPPC alone at 1 mM, read-out: % Platelet Aggregation): 100% | activity at 1000 µM ([1]; Low Ristocetin (0.75) mg/ml Test, ASA 0.00, DPPC alone at 1 mM, read-out: % Platelet Aggregation): 94%

O=C(O)c1ccccc1O [salicylate, salicylic acid]
injurious potential to induce gastric lesions [2]: remarkably decreased | anti-pyretic activity with DPPC versus NSAID alone ([3]; salicylic acid 70 mg/kg dose with DPPC, FIG. 21): ability of DPPC to enhance the anti-pyretic activity

COc1ccc2c(c1)c(CC(=O)O)c(C)n2C(=O)c1ccc(Cl)cc1 [indomethacin, acetic acid]
anti-pyretic activity with DPPC versus NSAID alone ([3]; indomethacin 10 mg/kg with DPPC, FIG. 18): ability of DPPC to enhance the anti-pyretic activity of ASA was seen | enhancement in anti-pyretic activity of the NSAID/DPPC complex compared to the NSAID alone [3]: -0.28 °C

CC(=O)Oc1ccccc1C(=O)O [ASA, acetyl-salicylic acid]
passive diffusion (flux) from water into cyclohexane [4]: negligible | Gastric Mucosal Hydrophobicity (degrees, Contact Angle) [5]: 15.8 ± 6.6^c(6) degrees | Hematocrit [5]: 47.8 ± 0.2^c(10) | activity at 10 µM ([1]; read-out: % Platelet Aggregation, High Ristocetin (1.5 mg/ml) Test, ASA 0.01mM, DPPC equimolar where added): 100% | activity at 100 µM ([1]; read-out: % Platelet Aggregation, High Ristocetin (1.5 mg/ml) Test, ASA 0.1 mM, DPPC equimolar where added): 83% | activity at 1000 µM ([1]; read-out: % Platelet Aggregation, High Ristocetin (1.5 mg/ml) Test, ASA 1.0 mM, DPPC equimolar where added): 95% | activity at 1000 µM ([1]; read-out: % Platelet Aggregation, High Ristocetin (1.5 mg/ml) Test, ASA 1.0 mM, second study, DPPC equimolar where added): 100% | activity at 10 µM ([1]; read-out: % Platelet Aggregation, Low Ristocetin (0.75) mg/ml Test, ASA 0.01mM, DPPC equimolar where added): 65% | activity at 100 µM ([1]; read-out: % Platelet Aggregation, Low Ristocetin (0.75) mg/ml Test, ASA 0.1mM, DPPC equimolar where added): 26% | activity at 1000 µM ([1]; read-out: % Platelet Aggregation, Low Ristocetin (0.75) mg/ml Test, ASA 1.0mM, second study, DPPC equimolar where added): 39% | activity at 1000 µM ([1]; read-out: % Platelet Aggregation, Low Ristocetin (0.75) mg/ml Test, ASA 1.0mm, DPPC equimolar where added): 80% | injurious potential to induce gastric lesions [2]: remarkably decreased | Granuloma Formation ([6]; ASA 90 mg/kg): 1.90 ± 0.10^b | Granuloma Formation ([6]; ASA 140 mg/kg): 1.07 ± 0.09^b | antipyretic activity ([3]; ASA 4.5 mg/kg (subthreshold), alone or complexed with equimolar DPPC, FIG. 9): no antipyretic activity alone | antipyretic activity ([3]; ASA 9.0 mg/kg (subthreshold), intragastric, alone or with equimolar phospholipid, FIG. 6 (five hour period) and FIG. 8): does not have significant antipyretic activity | antipyretic activity after antisecretory pre-treatment ([3]; aspirin 20 mg/kg (FIG. 22: 18 mg/kg) in conjunction with proton pump inhibitor omeprazole (Prilosec), IP 150 mg/kg two hours before): failed to reduce fever | antipyretic activity after antisecretory pre-treatment ([3]; aspirin 20 mg/kg (FIG. 23: 18 mg/kg) in conjunction with Ranitidine (Zantac), IP 2 mg/kg 1 hour before): failed to reduce fever | antipyretic activity ([3]; aspirin alone at doses of < 10 mg/kg, 4 hour study period, FIG. 7): failed to reduce the fever | Foreign-Body Granuloma Formation [7]: 3.89(8)

COc1ccc2cc([C@H](C)C(=O)O)ccc2c1 [naproxen, 2-(6-methoxy-2-naphthyl)-propinic acid]
anti-pyretic activity with DPPC versus NSAID alone ([3]; naproxen 25 mg/kg dose with DPPC, FIG. 19): ability of DPPC to enhance the anti-pyretic activity | enhancement in anti-pyretic activity of the NSAID/DPPC complex compared to the NSAID alone [3]: -0.30 °C

O=C(O)Cc1ccccc1Nc1c(Cl)cccc1Cl [diclofenac, 2-(2,6-dichlorophenylamino)-phenylacetic acid]
anti-pyretic activity with DPPC versus NSAID alone ([3]; diclofenac 10 mg/kg with DPPC, FIG. 20): ability of DPPC to enhance the anti-pyretic activity | enhancement in anti-pyretic activity of the NSAID/DPPC complex compared to the NSAID alone [3]: -0.29 °C
